Results from PubChem BioAssay AID248 (DTP/NCI, 2004).
Values joined by “and” are separate entries in the source; they are usually repeats but may differ in a detail not shown here. Equal values may be shown once. Inconclusive results and toxic doses are left out.

System: L1210 leukemia ip in BDF1 mice, survival T/C
Assay: NCI In Vivo Anticancer Drug Screen. Data for tumor model L1210 Leukemia (intraperitoneal) in B6D2F1 (BDF1) mice
Details: higher = longer survival
Method in brief: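 Tumor cells were implanted, animals were treated, and survival was followed. The result divides the treated measurement by the vehicle-control measurement.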

S=P(N1CCOCC1)(N1CC1)N1CC1
T/C (endpoint: mean survival time, dose: 2.4 mg/kg/injection, schedule: Q01DX001 (ip), vehicle: saline): 106 % of control
T/C (endpoint: mean survival time, dose: 2.4 mg/kg/injection, schedule: Q07DX003 (ip), vehicle: saline): 104 % of control
T/C (endpoint: mean survival time, dose: 2.5 mg/kg/injection, schedule: Q01DX Z (ip), vehicle: carboxymethylcellulose (CMC)): 109 % of control
T/C (endpoint: mean survival time, dose: 2.5 mg/kg/injection, schedule: Q#A X Z (ip), vehicle: saline): 102 % of control
T/C (endpoint: mean survival time, dose: 4.3 mg/kg/injection, schedule: Q01DX001 (ip), vehicle: saline): 117 % of control
T/C (endpoint: mean survival time, dose: 4.3 mg/kg/injection, schedule: Q07DX003 (ip), vehicle: saline): 113 % of control
T/C (endpoint: mean survival time, dose: 5.0 mg/kg/injection, schedule: Q01DX006 (iv), vehicle: saline): 107 % of control
T/C (endpoint: mean survival time, dose: 5.0 mg/kg/injection, schedule: Q01DX009 (ip), vehicle: saline): 101 % of control and 104 % of control
T/C (endpoint: mean survival time, dose: 5.0 mg/kg/injection, schedule: Q01DX010 (ip), vehicle: saline): 97 % of control and 103 % of control
T/C (endpoint: mean survival time, dose: 5.0 mg/kg/injection, schedule: Q01DX Z (im), vehicle: saline): 104 % of control
T/C (endpoint: mean survival time, dose: 5.0 mg/kg/injection, schedule: Q01DX Z (ip), vehicle: carboxymethylcellulose (CMC)): 102 % of control
T/C (endpoint: mean survival time, dose: 5.0 mg/kg/injection, schedule: Q01DX Z (ip), vehicle: saline): 110 % of control
T/C (endpoint: mean survival time, dose: 5.0 mg/kg/injection, schedule: Q01DX Z (sc), vehicle: saline): 107 % of control
T/C (endpoint: mean survival time, dose: 5.0 mg/kg/injection, schedule: Q#A X Z (ip), vehicle: saline): 106 % of control
T/C (endpoint: mean survival time, dose: 8.7 mg/kg/injection, schedule: Q01DX001 (ip), vehicle: saline): 103 % of control
T/C (endpoint: mean survival time, dose: 8.7 mg/kg/injection, schedule: Q07DX003 (ip), vehicle: saline): 115 % of control
T/C (endpoint: mean survival time, dose: 10.0 mg/kg/injection, schedule: Q01DX006 (iv), vehicle: saline): 109 % of control
T/C (endpoint: mean survival time, dose: 10.0 mg/kg/injection, schedule: Q01DX009 (ip), vehicle: saline): 101 % of control and 104 % of control
T/C (endpoint: mean survival time, dose: 10.0 mg/kg/injection, schedule: Q01DX010 (ip), vehicle: saline): 114 % of control and 124 % of control
T/C (endpoint: mean survival time, dose: 10.0 mg/kg/injection, schedule: Q01DX Z (im), vehicle: saline): 114 % of control
T/C (endpoint: mean survival time, dose: 10.0 mg/kg/injection, schedule: Q01DX Z (ip), vehicle: carboxymethylcellulose (CMC)): 115 % of control
T/C (endpoint: mean survival time, dose: 10.0 mg/kg/injection, schedule: Q01DX Z (ip), vehicle: saline): 116 % of control
T/C (endpoint: mean survival time, dose: 10.0 mg/kg/injection, schedule: Q01DX Z (sc), vehicle: saline): 107 % of control
T/C (endpoint: mean survival time, dose: 15.0 mg/kg/injection, schedule: Q03DX006 (ip), vehicle: saline): 118 % of control
T/C (endpoint: mean survival time, dose: 17.5 mg/kg/injection, schedule: Q01DX001 (ip), vehicle: saline): 106 % of control
T/C (endpoint: mean survival time, dose: 18.0 mg/kg/injection, schedule: Q01DX003 (ip), vehicle: saline): 118 % of control
T/C (endpoint: mean survival time, dose: 20.0 mg/kg/injection, schedule: Q01DX009 (ip), vehicle: saline): 108 % of control and 120 % of control
T/C (endpoint: mean survival time, dose: 20.0 mg/kg/injection, schedule: Q01DX010 (ip), vehicle: saline): 118 % of control and 119 % of control
T/C (endpoint: mean survival time, dose: 20.0 mg/kg/injection, schedule: Q01DX Z (im), vehicle: saline): 168 % of control
T/C (endpoint: mean survival time, dose: 20.0 mg/kg/injection, schedule: Q01DX Z (ip), vehicle: carboxymethylcellulose (CMC)): 123 % of control
T/C (endpoint: mean survival time, dose: 20.0 mg/kg/injection, schedule: Q01DX Z (ip), vehicle: saline): 160 % of control
T/C (endpoint: mean survival time, dose: 20.0 mg/kg/injection, schedule: Q01DX Z (oral), vehicle: saline): 122 % of control
T/C (endpoint: mean survival time, dose: 26.0 mg/kg/injection, schedule: Q01DX003 (ip), vehicle: saline): 166 % of control
T/C (endpoint: mean survival time, dose: 30.0 mg/kg/injection, schedule: Q03DX006 (ip), vehicle: saline): 160 % of control
T/C (endpoint: mean survival time, dose: 35.0 mg/kg/injection, schedule: Q01DX001 (ip), vehicle: saline): 120 % of control
T/C (endpoint: mean survival time, dose: 40.0 mg/kg/injection, schedule: Q01DX003 (ip), vehicle: saline): 150 % of control and 173 % of control
T/C (endpoint: mean survival time, dose: 40.0 mg/kg/injection, schedule: Q01DX009 (ip), vehicle: saline): 101 % of control and 104 % of control
T/C (endpoint: mean survival time, dose: 40.0 mg/kg/injection, schedule: Q01DX010 (ip), vehicle: saline): 104 % of control
T/C (endpoint: mean survival time, dose: 40.0 mg/kg/injection, schedule: Q01DX Z (im), vehicle: saline): 110 % of control
T/C (endpoint: mean survival time, dose: 40.0 mg/kg/injection, schedule: Q01DX Z (ip), vehicle: saline): 89 % of control
T/C (endpoint: mean survival time, dose: 40.0 mg/kg/injection, schedule: Q#A X Z (ip), vehicle: saline): 92 % of control
T/C (endpoint: mean survival time, dose: 60.0 mg/kg/injection, schedule: Q01DX003 (ip), vehicle: saline): 156 % of control and 178 % of control
T/C (endpoint: mean survival time, dose: 70.0 mg/kg/injection, schedule: Q07DX003 (ip), vehicle: saline): 178 % of control
T/C (endpoint: mean survival time, dose: 80.0 mg/kg/injection, schedule: Q01DX006 (iv), vehicle: saline): 164 % of control
T/C (endpoint: mean survival time, dose: 80.0 mg/kg/injection, schedule: Q01DX Z (oral), vehicle: saline): 100 % of control
T/C (endpoint: mean survival time, dose: 140.0 mg/kg/injection, schedule: Q01DX001 (ip), vehicle: saline): 107 % of control
T/C (endpoint: mean survival time, dose: 280.0 mg/kg/injection, schedule: Q01DX001 (ip), vehicle: saline): 102 % of control
T/C (endpoint: median survival time, dose: 5.0 mg/kg/injection, schedule: Q01DX009 (ip), vehicle: saline): 100 % of control and 111 % of control
T/C (endpoint: median survival time, dose: 10.0 mg/kg/injection, schedule: Q01DX009 (ip), vehicle: saline): 106 % of control and 122 % of control
T/C (endpoint: median survival time, dose: 20.0 mg/kg/injection, schedule: Q01DX009 (ip), vehicle: saline): 166 % of control and 168 % of control
T/C (endpoint: median survival time, dose: 40.0 mg/kg/injection, schedule: Q01DX009 (ip), vehicle: saline): 122 % of control
